{
  "source": "patent US20100178334A1",
  "about": "“Oral Pharmaceutical Dosage Form Comprising as Active Ingredients a Proton Pump Inhibitor together with Acetyl Salicyclic Acid” (priority 2005, published 2010)",
  "key": {"[1]": {"test_system": "damages on the mucosa caused by ASA", "settings": "concomitant administration for patients treated with ASA; cited from earlier work"}, "[2]": {"test_system": "gastric and/or duodenal ulcers in Helicobacter pylori-negative patients ≧60 years receiving ASA", "experiment": "randomized, multicenter, placebo-controlled trial of esomeprazole 20 mg once daily for 26 weeks in patients receiving ASA", "type": "in vivo, human", "protocol": "Patients were randomized to receive either esomeprazole 20 mg (administered as esomeprazole magnesium, i.e. Nexium® owned by AstraZeneca AB) or placebo once daily for 26 weeks. The primary outcome variable was the presence of gastric and/or duodenal ulcers at endoscopy over the 26-week period. A total of 991 patients, all receiving ASA in doses varying between 75-325 mg/day (57.1% male, mean age 69.3 years, mean acetyl salicylic acid (ASA) dose 124.0 mg/day) were included in the intent-to-treat population. The cumulative proportion of patients without either gastric or duodenal ulcer at 26 weeks was 98.2% with esomeprazole, compared with 93.8% with placebo (life table estimates, p=0.0007). The incidence of gastric ulcers was lower in patients taking esomeprazole than in those taking placebo (1.2% vs. 3.8%), as was the incidence of duodenal ulcers (0.4% and 1.6% for esomeprazole and placebo, respectively). Eight patients (1.6%) had developed an ulcer, in the esomeprazole group by 6 months, compared with 27 patients (5.4%) in the placebo group. This corresponded to a relative reduction of developing an ulcer of 70% when taking esomeprazole rather than placebo. A total of 95.6% of patients treated with esomeprazole had no esophageal lesions at week 26, compared with 81.7% of patients treated with placebo (p<0.0001)."}, "[3]": {"test_system": "ulcer complication like bleeding from the stomach or the duodenum", "settings": "cited from earlier work"}, "[4]": {"settings": "esomeprazole 20 mg once daily, 26 weeks, patients on ASA"}},
  "data": [
    {"smiles": "Cc1c(OCC(F)(F)F)ccnc1C[S+]([O-])c1nc2ccccc2[nH]1", "note": "(stereo not shown) [lansoprazole]", "values": [
      {"measurement": "effect on damages on the mucosa caused by ASA", "setting": "[1]", "result": "reduce damages on the mucosa caused by ASA"}
    ]},
    {"smiles": "COc1ccc2nc([S@@+]([O-])Cc3ncc(C)c(OC)c3C)[nH]c2c1", "note": "[esomeprazole]", "values": [
      {"measurement": "resolution of investigator-assessed upper gastrointestinal symptoms", "setting": "[2]; all symptoms, versus placebo", "result": "higher with esomeprazole than with placebo"},
      {"measurement": "relative reduction of developing an ulcer when taking esomeprazole rather than placebo", "setting": "[2]; by 6 months, versus placebo", "result": 70, "unit": "%"},
      {"measurement": "safety and tolerability", "setting": "[2]; esomeprazole 20 mg once daily for 26 weeks", "result": "safe and well tolerated"},
      {"measurement": "incidence of duodenal ulcers", "setting": "[2]; [4]", "result": 0.4, "unit": "%"},
      {"measurement": "incidence of gastric ulcers", "setting": "[2]; [4]", "result": 1.2, "unit": "%"},
      {"measurement": "patients who had developed an ulcer by 6 months", "setting": "[2]; esomeprazole 20 mg once daily, patients on ASA, eight patients", "result": 1.6, "unit": "%"},
      {"measurement": "proportion of patients without esophageal lesions at 6 months", "setting": "[2]; patients with no lesions and those with Los Angeles grade A lesions at baseline, versus placebo", "result": "higher with esomeprazole than with placebo"}
    ]},
    {"smiles": "CC(=O)Oc1ccccc1C(=O)O", "note": "[ASA, acetyl salicylic acid]", "values": [
      {"measurement": "relative risk of developing an ulcer complication like bleeding from the stomach or the duodenum", "setting": "[3]; daily dose as low as 75 mg (Weil et al)", "result": "doubles"},
      {"measurement": "hospital admissions due to adverse drug reactions caused by ASA", "setting": "[3]; epidemiological data from the UK (Pirmohamed et al)", "result": 18, "unit": "%"}
    ]}
  ]
}
